Reference: patent US20190152957A1, “PYRIDIN-3-YL ACETIC ACID DERIVATIVES AS INHIBITORS OF HUMAN IMMUNODEFICIENCY VIRUS REPLICATION” (ViiV HEALTHCARE UK (NO.5) LIMITED, priority 2016, published 2019)
pEC50: −log10 of the molar value. Where two headings read alike, the source gives them in different places.

Test system: recombinant NL-RLuc virus (HIV NL4-3 with Renilla Luciferase gene) in MT-2 cells
Assay: Inhibition of HIV replication (NL-RLuc virus, luciferase readout in MT-2 cells)
Format: cell-based
Conditions: MT2, 120 h; for pEC50: read-out: Activity; for EC50: read-out: EC50 μM
Excerpt: Inhibition of HIV Replication:
A recombinant NL-RLuc proviral clone was constructed in which a section of the nef gene from NL4-3 was replaced with the Renilla Luciferase gene. This virus is fully infectious and can undergo multiple cycles of replication in cell culture. In addition, the luciferous reporter provides a simple and easy method for quantitating the extent of virus growth and consequently, the antiviral activity of test compounds. The plasmid pNLRLuc contains the proviral NL-Rluc DNA cloned into pUC18 at the PvuII site. The NL-RLuc virus was prepared by transfection of 293T cells with the plasmid pNLRLuc. Transfections were performed using the LipofectAMINE PLUS kit from Invitrogen (Carlsbad, Calif.) according to the manufacturer and the virus generated was titered in MT-2 cells. For susceptibility analyses, the titrated virus was used to infect MT-2 cells in the presence of compound, and after 5 days of incubation, cells were processed and quantitated for virus growth by the amount of expressed luciferase. Assay media was RPMI 1640 supplemented with 10% heat inactivated fetal bovine serum (FBS), 100 units/ml penicillin G/100 units/ml streptomycin, 10 mM HEPES buffer pH 7.55 and 2 mM L-glutamine. The results from at least 2 experiments were used to calculate the EC50 values. Luciferase was quantitated using the Dual Luciferase kit from Promega (Madison, Wis.). Susceptibility of viruses to compounds was determined by incubation in the presence of serial dilutions of the compound. The 50% effective concentration (EC50) was calculated by using the exponential form of the median effect equation where (Fa)=1/[1+(ED50/drug conc.)^m](Johnson V A, Byington R T. Infectivity Assay. In Techniques in HIV Research. ed. Aldovini A, Walker BD. 71-76. New York: Stockton Press. 1990). Activity equal to A refers to a compound having an EC50≤100 nM, while B and C denote compounds having an EC50 between 100 nM and 1 uM (B) or >1 uM (C).

Compound | pEC50 | EC50
Cc1nc(C)c([C@H](OC(C)(C)C)C(=O)O)c(N2CCC(C)(C)CC2)c1-c1ccc2c(c1)CCN(CC1CCCOC1)C2 (stereo partly drawn) [Compound 1, (2S)-2-(tert-butoxy)-2-(4-(4,4-dimethylpiperidin-1-yl)-2,6-dimethyl-5-(2-((tetrahydro-2H-pyran-3-yl)methyl)-1,2,3,4-tetrahydroisoquinolin-6-yl)pyridin-3-yl)acetic acid] | > 7.00 | 0.028 µM
Cc1nc(C)c([C@H](OC(C)(C)C)C(=O)O)c(N2CCC(C)(C)CC2)c1-c1ccc2c(c1)CCN(CC1C[C@@H]3CC[C@H]1C3)C2 (stereo partly drawn) [Compound 2, (2S)-2-(5-(2-((1S,4R)-bicyclo[2.2.1]heptan-2-ylmethyl)-1,2,3,4-tetrahydroisoquinolin-6-yl)-4-(4,4-dimethylpiperidin-1-yl)-2,6-dimethylpyridin-3-yl)-2-(tert-butoxy)acetic acid] | > 7.00 | 
Cc1nc(C)c([C@H](OC(C)(C)C)C(=O)O)c(N2CCC(C)(C)CC2)c1-c1ccc2c(c1)CCN(CC1CCOC(C)(C)C1)C2 (stereo partly drawn) [Compound 3, (2S)-2-(tert-butoxy)-2-(4-(4,4-dimethylpiperidin-1-yl)-5-(2-((2,2-dimethyltetrahydro-2H-pyran-4-yl)methyl)-1,2,3,4-tetrahydroisoquinolin-6-yl)-2,6-dimethylpyridin-3-yl)acetic acid] | > 7.00 | 
Cc1nc(C)c([C@H](OC(C)(C)C)C(=O)O)c(N2CCC(C)(C)CC2)c1-c1ccc2c(c1)CCN(CC1CC1)C2 [Compound 4, (S)-2-(tert-butoxy)-2-(5-(2-(cyclopropylmethyl)-1,2,3,4-tetrahydroisoquinolin-6-yl)-4-(4,4-dimethylpiperidin-1-yl)-2,6-dimethylpyridin-3-yl)acetic acid] | > 7.00 | 
Cc1nc(C)c([C@H](OC(C)(C)C)C(=O)O)c(N2CCC(C)(C)CC2)c1-c1ccc2c(c1)CCN(CC1CCCCC1)C2 [Compound 5, (S)-2-(tert-butoxy)-2-(5-(2-(cyclohexylmethyl)-1,2,3,4-tetrahydroisoquinolin-6-yl)-4-(4,4-dimethylpiperidin-1-yl)-2,6-dimethylpyridin-3-yl)acetic acid] | > 7.00 | 
Cc1nc(C)c([C@H](OC(C)(C)C)C(=O)O)c(N2CCC(C)(C)CC2)c1-c1ccc2c(c1)CCN(C[C@H]1C[C@H]3C=C[C@@H]1C3)C2 [Compound 6, (S)-2-(5-(2-((1S,2S,4S)-bicyclo[2.2.1]hept-5-en-2-ylmethyl)-1,2,3,4-tetrahydroisoquinolin-6-yl)-4-(4,4-dimethylpiperidin-1-yl)-2,6-dimethylpyridin-3-yl)-2-(tert-butoxy)acetic acid] | > 7.00 | 
Cc1nc(C)c([C@H](OC(C)(C)C)C(=O)O)c(N2CCC(C)(C)CC2)c1-c1ccc2c(c1)CCN(C[C@H]1C[C@@H]3C=C[C@H]1C3)C2 [Compound 7, (S)-2-(5-(2-((1R,2S,4R)-bicyclo[2.2.1]hept-5-en-2-ylmethyl)-1,2,3,4-tetrahydroisoquinolin-6-yl)-4-(4,4-dimethylpiperidin-1-yl)-2,6-dimethylpyridin-3-yl)-2-(tert-butoxy)acetic acid] | > 7.00 | 
Cc1ncsc1CN1CCc2cc(-c3c(C)nc(C)c([C@H](OC(C)(C)C)C(=O)O)c3N3CCC(C)(C)CC3)ccc2C1 [Compound 8, (S)-2-(tert-butoxy)-2-(4-(4,4-dimethylpiperidin-1-yl)-2,6-dimethyl-5-(2-((4-methylthiazol-5-yl)methyl)-1,2,3,4-tetrahydroisoquinolin-6-yl)pyridin-3-yl)acetic acid] | > 7.00 | 0.002 µM
Cc1nc(C)c([C@H](OC(C)(C)C)C(=O)O)c(N2CCC(C)(C)CC2)c1-c1ccc2c(c1)CCN(Cc1nccs1)C2 [Compound 9, (S)-2-(tert-butoxy)-2-(4-(4,4-dimethylpiperidin-1-yl)-2,6-dimethyl-5-(2-(thiazol-2-ylmethyl)-1,2,3,4-tetrahydroisoquinolin-6-yl)pyridin-3-yl)acetic acid] | > 7.00 | 
Cc1nc(C)c([C@H](OC(C)(C)C)C(=O)O)c(N2CCC(C)(C)CC2)c1-c1ccc2c(c1)CCN(Cc1cscn1)C2 [Compound 10, (S)-2-(tert-butoxy)-2-(4-(4,4-dimethylpiperidin-1-yl)-2,6-dimethyl-5-(2-(thiazol-4-ylmethyl)-1,2,3,4-tetrahydroisoquinolin-6-yl)pyridin-3-yl)acetic acid] | > 7.00 | 
Cc1nc(C)c([C@H](OC(C)(C)C)C(=O)O)c(N2CCC(C)(C)CC2)c1-c1ccc2c(c1)CCN(Cc1cccnc1)C2 [Compound 11, (S)-2-(tert-butoxy)-2-(4-(4,4-dimethylpiperidin-1-yl)-2,6-dimethyl-5-(2-(pyridin-3-ylmethyl)-1,2,3,4-tetrahydroisoquinolin-6-yl)pyridin-3-yl)acetic acid] | > 7.00 | 
Cc1nc(C)c([C@H](OC(C)(C)C)C(=O)O)c(N2CCC(C)(C)CC2)c1-c1ccc2c(c1)CCN(Cc1ccncc1)C2 [Compound 12, (S)-2-(tert-butoxy)-2-(4-(4,4-dimethylpiperidin-1-yl)-2,6-dimethyl-5-(2-(pyridin-4-ylmethyl)-1,2,3,4-tetrahydroisoquinolin-6-yl)pyridin-3-yl)acetic acid] | > 7.00 | 
Cc1cc(CN2CCc3cc(-c4c(C)nc(C)c([C@H](OC(C)(C)C)C(=O)O)c4N4CCC(C)(C)CC4)ccc3C2)no1 [Compound 13, (S)-2-(tert-butoxy)-2-(4-(4,4-dimethylpiperidin-1-yl)-2,6-dimethyl-5-(2-((5-methylisoxazol-3-yl)methyl)-1,2,3,4-tetrahydroisoquinolin-6-yl)pyridin-3-yl)acetic acid] | > 7.00 | 
Cc1nc(C)c([C@H](OC(C)(C)C)C(=O)O)c(N2CCC(C)(C)CC2)c1-c1ccc2c(c1)CCN(Cc1nc(-c3ccccc3)oc1C)C2 [Compound 14, (S)-2-(tert-butoxy)-2-(4-(4,4-dimethylpiperidin-1-yl)-2,6-dimethyl-5-(2-((5-methyl-2-phenyloxazol-4-yl)methyl)-1,2,3,4-tetrahydroisoquinolin-6-yl)pyridin-3-yl)acetic acid] | > 7.00 | 0.016 µM
CCn1cncc1CN1CCc2cc(-c3c(C)nc(C)c([C@H](OC(C)(C)C)C(=O)O)c3N3CCC(C)(C)CC3)ccc2C1 [Compound 15, (S)-2-(tert-butoxy)-2-(4-(4,4-dimethylpiperidin-1-yl)-5-(2-((1-ethyl-1H-imidazol-5-yl)methyl)-1,2,3,4-tetrahydroisoquinolin-6-yl)-2,6-dimethylpyridin-3-yl)acetic acid] | > 7.00 | 
Cc1cc(CN2CCc3cc(-c4c(C)nc(C)c([C@H](OC(C)(C)C)C(=O)O)c4N4CCC(C)(C)CC4)ccc3C2)n(C)n1 [Compound 16, (S)-2-(tert-butoxy)-2-(5-(2-((1,3-dimethyl-1H-pyrazol-5-yl)methyl)-1,2,3,4-tetrahydroisoquinolin-6-yl)-4-(4,4-dimethylpiperidin-1-yl)-2,6-dimethylpyridin-3-yl)acetic acid] | > 7.00 | 
Cc1nc(C)c([C@H](OC(C)(C)C)C(=O)O)c(N2CCC(C)(C)CC2)c1-c1ccc2c(c1)CCN(Cc1ncc[nH]1)C2 [Compound 17, (S)-2-(5-(2-((1H-imidazol-2-yl)methyl)-1,2,3,4-tetrahydroisoquinolin-6-yl)-4-(4,4-dimethylpiperidin-1-yl)-2,6-dimethylpyridin-3-yl)-2-(tert-butoxy)acetic acid] | 6.00 to 7.00 | 0.544 µM
